≈ marks a conversion by molar mass, not a printed value.
Columns and labels:
[1] = Hydrophobic dye (Sudan I) solubilization; format: physicochemical; conditions: water solution; GCR-2 with two-fold excess of MG; absorption band at 500 nm region
Protocol: The method of solubilization of the hydrophobic dye Sudan I was used for determination of formed aggregates’ morphology. The appearance of an absorption band characteristic of a lipophilic substance in an aqueous solution of a specific component indicates the formation of a hydrophobic core of the component aggregates, like in surfactant micelles, which solubilizes the hydrophobic substrate.
(§1) Dependence of GCR-2 at 500 nm on its concentration also loses linearity at higher 7.2 mM (Figure 3b). This is because the dissolved molecules of GCR-2 aggregate that confirms by conductometry and tensiometry. The obtained values of the correlation coefficients r^2 calculated for both calixarenes in a wide concentration range depict that GCR-2 has a greater ability to aggregate than GCR-1. […] Probably, the short methyl groups fail to form a nonpolar core capable of incorporating hydrophobic guests. […]
Hydrophobic dye solubilization was carried out by adding an excess of Sudan I to solutions. […] They were filtered, and Sudan I absorbance was measured at 486 nm using a Specord 250 Plus spectrophotometer (Analytic Jena, Jena, Germany) using a 1 mm optical path length quartz cell. Dye absorbance was obtained by subtraction of the contribution of macrocycle to the summary spectrum. Each absorbance spectrum was obtained three times, and the absorbance intensities were within 2–3%.

[2] = UV spectroscopy (absorption at 500 nm), critical aggregation concentration; format: physicochemical; conditions: water solution; GCR-2 in the presence of two-fold excess of MG
Protocol: Consequently, there is a chance that GCR-1 aggregates form not only by hydrogen bonds between hydroxylic groups but also by electrostatic interaction between negatively charged sulfonate groups on the lower rim and partially-positively charged meglumine groups on the upper rim. The change of optical density at 500 nm with increasing GCR-1 concentration has a nonlinear character (Figure 3b). The linear dependence breaks after 10 mM that correlates well with the CAC obtained by conductometry and tensiometry, and this violation of Lambert-Beer law is due to formation of GCR-1 aggregates in solution.
as §1, with “guests. Thus, the cooperative effect of hydrogen bonds and π-stacking between GCR-2 molecules contribute to formation of compact aggregates incapable to solubilization of hydrophobic molecules.” for “guests.”

[3] = Dynamic light scattering, hydrodynamic diameter; format: physicochemical; conditions: water
[4] = Conductometry, critical aggregation concentration; format: physicochemical; conditions: water solution, 25 °C; GCR-2 in the presence of two-fold excess of MG
Protocol: Firstly, self-assembly of GCR-1 was studied by conductometric measurements (Figure 1). Specific conductivity increases proportionately with the GCR-1 concentration in water solution. Inflection on the plot appears at 14 mM, and after this critical aggregation concentration (CAC) the increment rate of conductivity reduces because the aggregates transfer charge less efficiently than monomers. Remarkably, modification of calix[4]resorcinarene by N-methyl-D-glucamine fragment facilitates self-aggregation of macrocycle in water medium (Figure 1). The CAC value for calix[4]resorcinarene (CR-1) without meglumine units at the upper rim is 20 mM that is greater than that for meglumine-modified calix[4]resorcinarene. The driving forces of intermolecular aggregates’ formation are probably hydrogen bonds between hydroxyl groups on the GCR-1 upper rim, so the presence of additional OH-groups in the meglumine group reinforces this noncovalent interaction. A stable pH value, which can be observed over a wide range of concentrations, verifies that the N-methyl-D-glucamine fragment is an effective buffer component (Figure S4). […] As a result, the aggregation of this calix[4]resorcinarene was studied in water solutions at the presence of two-fold excess of N-methyl-D-glucamine (MG). […] Specific conductivity values were measured at least three times for each concentration. […]

[5] = Stability of water solutions; format: physicochemical; conditions: water without MG
[6] = system: S. aureus 209P; assay: Bacteriostatic activity (MIC), dilution method; format: cell-based; conditions: Staphylococcus aureus, read-out: Minimal Inhibiting Concentration (MIC)
Protocol: (§2) In vitro bacteriostatic and fungistatic activities of the macrocycles were evaluated against pathogenic representatives of Gram-positive bacteria (Staphylococcus aureus 209p, Bacillus cereus 8035), Gram-negative bacteria (Pseudomonas aeruginosa 9027, Escherichia coli F-50), and yeast (Trichophyton mentagrophytes var. gypseum 1773, Aspergillus niger BKMF-1119, Candida albicans 885–653). Minimal inhibitory concentrations (MICs) were estimated by conventional dilution methods for bacteria and fungi. The antibacterial and antifungal assays were performed in Hottinger broth (HiMe-dia Laboratories Pvt. Ltd. Mumbai, India) and Sabouraud dextrose broth (HiMedia Laboratories Pvt. Ltd.) (bacteria 3 × 10^5 cfu/mL and yeast 2 × 10^4 cfu/mL). The bactericidal and fungicidal activities were determined as described earlier. The tests were repeated three times.

[7] = system: B. cereus 8035; assay: Bacteriostatic activity (MIC), dilution method; format: cell-based; conditions: Bacillus cereus; B. cereus 8035, bacteriostatic activity; read-out: Minimal Inhibiting Concentration (MIC)
Protocol: as §2

## CC1c2cc(c(O)c(CN(C)C[C@@H](O)[C@H](O)[C@@H](O)[C@@H](O)CO)c2O)C(C)c2cc(c(O)c(CN(C)C[C@@H](O)[C@H](O)[C@@H](O)[C@@H](O)CO)c2O)C(C)c2cc(c(O)c(CN(C)C[C@@H](O)[C@H](O)[C@@H](O)[C@@H](O)CO)c2O)C(C)c2cc1c(O)c(CN(C)C[C@@H](O)[C@H](O)[C@@H](O)[C@@H](O)CO)c2O (stereo partly drawn) [GCR-2, N-methyl-D-glucaminemethyl methylcalix[4]resorcinarene]
[1]
  Solubilization of hydrophobic dye Sudan I: do not solubilize the hydrophobic Sudan I
[2]
  CAC, UV spectroscopy (loss of linearity of absorption at 500 nm): 7.2 mM
[3]; 15 mM GCR-2–30 mM MG mixed system
  Hydrodynamic diameter: 3.8 nm
[3]; mixed 1 mM GCR-2–2 mM MG system
  Hydrodynamic diameter: 2 nm
[4]
  CAC, conductometry: 7.9 mM
[5]
  Stability of water solutions: unstable and eventually precipitate
[6]
  MIC: 130 ± 10 µM (≈ 179 µg/mL)
[7]
  MIC: 250 µM (≈ 343 µg/mL)
